Consider 7 molecules from patent US20150152122A1, “TYROSINASE INHIBITORS” (Avon Products, Inc., priority 2013, published 2015).

The subject of one assay is B16 mouse melanoma cells. In words: Inhibition of melanin production in B16 melanoma cell assay. Type of assay: cell-based. To be noted: 4 days, normalized to cell viability (MTT), alpha MSH 2 ng/ml. The method, then: The effects of various test compounds on melanin levels were determined by performing assays using B16 melanoma cells. These cells are known to constitutively produce melanin and are a commonly utilized and accepted model system for monitoring the inhibition of melanin synthesis. The B16 mouse melanoma cells were seeded (ATCC, cat. #: CRL-6475) into 96-well tissue culture-treated plates (BD Falcon) and treated with test actives or controls in phenol red free DMEM (Mediatech; cat. #: 17-205-CV) with 2 nanogram/ml of alpha MSH (Fluka; cat #: 63605). The cells were examined for their ability to modulate pigment formation. […] Tests were performed in 6 replicates each. Following the treatment period (4 days), the level of pigment produced or melanin synthesized was quantified by reading the absorbance at 540 nm using a standard microplate reader (Tecan Group Ltd.).
After quantifying the amount of melanin, cell viability was determined using the MTT conversion method. The MTT conversion method measures the reduction of the MTT dye from a yellow colored, water-soluble, tetrazolium salt to a bluish-purple colored insoluble formazan precipitate by NAD(P)H-dependent microsomal dehydrogenase enzymes, which only function in viable cells. The intensity of the blue color is indicative of cell viability. After quantifying the amount of melanin pigment produced, the cells were exposed to MTT dye solution (1 mg/ml) for two to three hours. Formazan material was solubilized with reagent alcohol (95% ethanol: 5% isopropanol) and shaken on an orbital shaker for 15-30 minutes. MTT dye uptake and conversion by viable cells were determined by measuring the extracted formazan at 570 nm using a microplate reader. Total pigmentation was calculated, normalized to cell viability values and expressed as the average percent change in melanin activity relative to control of the six experiments performed.

A further assay deals with Mushroom tyrosinase. In words: Mushroom tyrosinase assay. In kind it is biochemical. The conditions noted are these: percent change vs DMSO vehicle, L-Tyrosine substrate, 25° C., 30 min. The method, then: Mushroom tyrosinase and L-Tyrosine were obtained from Sigma-Aldrich, Inc. (St. Louis, Mo.). The enzyme activity was measured in buffer containing 100 mM phosphate buffer pH 6.8, 5% absolute ethanol, 2 micrograms/milliiliter mushroom tyrosinase, and 0.2 mg/ml L-Tyrosine. The reaction (conversion of L-Tyrosine to DOPAchrome) was conducted in triplicates at 25° C. for 30 min, and absorbance was then measured at 492 nm. Kojic Acid was used as a positive control inhibitor in these assays. Percent change in tyrosinase activity relative to vehicle control was calculated.

Assay [1] has as its system Human Epidermal Melanocytes, neonatal, darkly pigmented donor (HEMn-DP). In words: Human Primary Melanocyte Pigmentation Assay (HEMn-DP). Type of assay: cell-based. The conditions noted are these: 5 days, normalized to cell viability. On the procedure:
The effects of various test compounds on melanin productions were determined by performing assays using Human Epidermal Melanocytes, neonatal, darkly pigmented donor (HEMn-DP). The HEMn-DP cells were seeded (Invitrogen; cat. #: C-202-5C) into 6-well tissue culture-treated plates (BD Falcon) and treated with test actives or controls in Medium 254 (Invitrogen; cat. #: M-254-500) supplemented with 1% HMSG (Invitrogen; cat. #: S-002-5) and 1% PS. The cells were examined for their ability to modulate pigment formation. […] Tests were performed in triplicates each. Following the treatment period (5 days), supernatants were aspirated. The melanin was extracted with 0.5 ml of 2N NaOH for 30 minutes at 80° C. The level of melanin synthesized within the cells was quantified by reading the absorbance at 405 nm using a standard microplate reader (Tecan Group Ltd.).
The cell viability was determined using the MTT conversion method. The MTT conversion method measures the reduction of the MTT dye from a yellow colored, water-soluble, tetrazolium salt to a bluish-purple colored insoluble formazan precipitate by NAD(P)H-dependent microsomal dehydrogenase enzymes, which only function in viable cells. […] MTT dye uptake and conversion by viable cells were determined by measuring the extracted formazan at 570 nm using a microplate reader. Total pigmentation was calculated and normalized to cell viability values. […]

Assay [2] concerns MELANODERM (MEL-300-B) human skin model. In words: 3D skin equivalent tissue pigmentation assay (MELANODERM). Type of assay: cell-based. To be noted: topical 10 μl, Day 11. The method, then: The effect of the tyrosinase inhibitors on melanin levels was investigated using a MELANODERM™ (MEL-300-B, MatTek Corp., Ashland, Mass.) human skin model. MELANODERM™ is a viable reconstituted three-dimensional human skin equivalent containing melanocytes derived from African-American donors. Tissues were maintained in culture medium EPI-100-NMM-113 at 37° C. as recommended by the manufacturer.
The compounds were dissolved in either 69% propylene glycol+30% EtOH+1% DMSO or 70% propylene glycol+30% EtOH desired concentration (w/v). 10 μl of the solution was applied topically to the MELANODERMTM tissue while culture medium was added on days 1, 2, 4, 7, and 9. Control tissues were treated with the 10 μl of corresponding vehicle only. On Day 11, tissues were collected and homogenized in a buffer containing 1% SDS, 50 mM EDTA, and 10 mM Tris, pH 6.8. To each homogenate, protease K (5 mg/ml) was added and incubated overnight at 45° C. Additional protease K was added and incubated for 4 hours at 45° C., followed by the addition of 0.5M sodium carbonate and 30% H2O2 and incubation at 80° C. for 30 minutes. The samples were cooled down to room temperature, and extracted with chloroform/methanol (2:1). After centrifugation at 10,000 g for 10 minutes, absorbance of the top phase was measured at 450 nm. Percent change in melanin levels in treated tissue was calculated relative to control. The average percent change in melanin relative to control of the three tissues is reported in the Table 5 in accordance with the scale: 0: <7% decrease in pigmentation level; +: between 8-14% decrease; ++: between 15-20% decrease; +++: between 21-30% decrease; ++++: >31% decrease; C=cytotoxic

A further assay has as its system human skin explants. In words: Melanin production in human skin explants. In kind it is cell-based. The conditions noted are these: human skin explant. On the procedure:
The effects of test compound AV7909 on melanin levels in human skin explants were determined relative to a DMSO control and Kojic Acid benchmark.

SMILES strings stand for the structures.

For the molecule `Sc1nnc2sc3ccccc3n12` [AV0442], the “B16 Assay Percent Change Melanin Compared to Vehicle” value with B16 mouse melanoma cells (concentration 0.0010%) is recorded as −19%. Besides, the “Tyrosinase Activity relative to Vehicle Control” value with Mushroom tyrosinase (concentration 0.0010%) was −73%; with Mushroom tyrosinase (concentration 0.0100%) it was −49%.

With `CC(C)c1nc(=S)[nH]n1-c1ccccc1` [AV1973], the entries for the “B16 Assay Percent Change Melanin Compared to Vehicle” value in the assay on B16 mouse melanoma cells (concentration 0.0001%) and in the assay on B16 mouse melanoma cells (concentration 0.0010%) were −17% and −60%, respectively. Besides, the “Tyrosinase Activity relative to Vehicle Control” value in the assay on Mushroom tyrosinase (concentration 0.0100%) was −81%.

For `S=c1nc(-c2cccs2)cn[nH]1` [AV4926], in the assay on B16 mouse melanoma cells (concentration 0.0010%), the “B16 Assay Percent Change Melanin Compared to Vehicle” value is given as −49%. Moreover, the figures for the “Tyrosinase Activity relative to Vehicle Control” value in the assay with Mushroom tyrosinase (concentration 0.0010%) and with Mushroom tyrosinase (concentration 0.0100%) were −75% and −53%, respectively.

Turning to `S=c1[nH]nc(-c2ccc3c(c2)OCO3)o1` [AV5828], the figures for the “B16 Assay Percent Change Melanin Compared to Vehicle” value with B16 mouse melanoma cells (concentration 0.0001%) and with B16 mouse melanoma cells (concentration 0.0010%) were −13% and −30%, respectively. In addition, the “Tyrosinase Activity relative to Vehicle Control” value with Mushroom tyrosinase (concentration 0.0010%) is −48%; in the assay with Mushroom tyrosinase (concentration 0.0100%) it was −77%.

Consider `Cn1c2ccccc2n2c(=S)[nH]nc12` [AV7533], for which the “B16 Assay Percent Change Melanin Compared to Vehicle” value was −31% in the assay on B16 mouse melanoma cells (concentration 0.0001%) and −63% in the assay on B16 mouse melanoma cells (concentration 0.0010%). Besides, the “HUMAN PRIMARY MELANOCYTE PIGMENTATION ASSAY (change in melanin compared to DMSO vehicle control)” value in assay [1] (concentration 0.0001%) was 0 (<10% decrease in pigmentation level); in assay [1] (concentration 0.001%), “++ (between 31-50% decrease)”. The results for the “Tyrosinase Activity relative to Vehicle Control” value in the assay with Mushroom tyrosinase (concentration 0.0010%) and in the assay with Mushroom tyrosinase (concentration 0.0100%) were −74% and −70%, respectively. Besides, the “3D Tissue Pigmentation Assay (change in melanin compared to vehicle control)” value is listed as “+ (between 8-14% decrease)” in assay [2] (concentration 0.05% (w/v)), “+ (between 8-14% decrease)” in assay [2] (concentration 0.1% (w/v)) and “++ (between 15-20% decrease)” in assay [2] (concentration 0.25% (w/v)).

Consider `Cc1cc(C)n(-c2ccc(=S)[nH]n2)n1` [AV7909], for which the “B16 Assay Percent Change Melanin Compared to Vehicle” value in the assay with B16 mouse melanoma cells (concentration 0.0001%) is −17%; in the assay with B16 mouse melanoma cells (concentration 0.0010%), −79%. Besides, the “Tyrosinase Activity relative to Vehicle Control” value with Mushroom tyrosinase (concentration 0.0010%) was −82%; in the assay with Mushroom tyrosinase (concentration 0.0100%) it was −70%. Also, the “3D Tissue Pigmentation Assay (change in melanin compared to vehicle control)” value in assay [2] (concentration 0.1% (w/v)) is “++ (between 15-20% decrease)”; in assay [2] (concentration 0.25% (w/v)), “+++ (between 21-30% decrease)”; in assay [2] (concentration 0.5% (w/v)) it was “++++ (>31% decrease)”. Also, the “Pigment Production (percent change in melanin compared to DMSO vehicle control)” value in the assay with human skin explants (concentration 0.1%) is on record as −17%; in the assay on human skin explants (concentration 0.5%), −28%.

As to `O=c1cc(CO)occ1O` [Kojic Acid, Kojic acid (5-hydroxy-4-pyran-4-one-2-methyl), reference compound], the “Pigment Production (percent change in melanin compared to DMSO vehicle control)” value with human skin explants (concentration 0.1%) is −23%.
